Measurements from publication PMC11167047 (Cell Death Discovery, 2024).

What was measured:
Assay in all cases: kinome screen (33PanQinase)
Assay type in all cases: biochemical
PASK = target: T1, PASK (Homo sapiens, UniProt Q96RG2)
T1 construct: purchased Reaction Biology Europe GmbH (formerly ProQinase)
Procedure: (§1) The Kinome Screening was performed by Reaction Biology Europe GmbH (http://reactionbiology.com; Freiburg i. Br., Germany).

PDK1 = target: T2, PDK1 (Homo sapiens, UniProt O15530)
T2 construct: purchased Reaction Biology Europe GmbH (formerly ProQinase)
T2 sequence (O15530 1-556): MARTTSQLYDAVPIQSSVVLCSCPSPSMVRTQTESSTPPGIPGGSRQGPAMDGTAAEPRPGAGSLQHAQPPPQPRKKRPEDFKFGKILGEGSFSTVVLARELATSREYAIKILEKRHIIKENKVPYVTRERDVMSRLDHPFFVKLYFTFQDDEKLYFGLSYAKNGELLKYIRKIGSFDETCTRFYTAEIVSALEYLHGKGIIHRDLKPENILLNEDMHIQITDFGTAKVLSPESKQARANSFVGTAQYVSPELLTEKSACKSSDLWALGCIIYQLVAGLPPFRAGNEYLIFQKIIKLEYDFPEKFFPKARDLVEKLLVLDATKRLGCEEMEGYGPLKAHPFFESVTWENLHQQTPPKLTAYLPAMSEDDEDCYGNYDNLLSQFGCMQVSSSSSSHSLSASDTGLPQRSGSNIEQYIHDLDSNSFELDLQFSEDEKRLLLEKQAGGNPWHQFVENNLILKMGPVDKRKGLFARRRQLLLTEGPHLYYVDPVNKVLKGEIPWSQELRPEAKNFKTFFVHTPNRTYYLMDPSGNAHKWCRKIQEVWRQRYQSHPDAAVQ
Procedure: as §1

MUSK = target: T3, MUSK (Homo sapiens, UniProt O15146)
T3 construct: purchased Reaction Biology Europe GmbH (formerly ProQinase)
T3 sequence (O15146 24-869): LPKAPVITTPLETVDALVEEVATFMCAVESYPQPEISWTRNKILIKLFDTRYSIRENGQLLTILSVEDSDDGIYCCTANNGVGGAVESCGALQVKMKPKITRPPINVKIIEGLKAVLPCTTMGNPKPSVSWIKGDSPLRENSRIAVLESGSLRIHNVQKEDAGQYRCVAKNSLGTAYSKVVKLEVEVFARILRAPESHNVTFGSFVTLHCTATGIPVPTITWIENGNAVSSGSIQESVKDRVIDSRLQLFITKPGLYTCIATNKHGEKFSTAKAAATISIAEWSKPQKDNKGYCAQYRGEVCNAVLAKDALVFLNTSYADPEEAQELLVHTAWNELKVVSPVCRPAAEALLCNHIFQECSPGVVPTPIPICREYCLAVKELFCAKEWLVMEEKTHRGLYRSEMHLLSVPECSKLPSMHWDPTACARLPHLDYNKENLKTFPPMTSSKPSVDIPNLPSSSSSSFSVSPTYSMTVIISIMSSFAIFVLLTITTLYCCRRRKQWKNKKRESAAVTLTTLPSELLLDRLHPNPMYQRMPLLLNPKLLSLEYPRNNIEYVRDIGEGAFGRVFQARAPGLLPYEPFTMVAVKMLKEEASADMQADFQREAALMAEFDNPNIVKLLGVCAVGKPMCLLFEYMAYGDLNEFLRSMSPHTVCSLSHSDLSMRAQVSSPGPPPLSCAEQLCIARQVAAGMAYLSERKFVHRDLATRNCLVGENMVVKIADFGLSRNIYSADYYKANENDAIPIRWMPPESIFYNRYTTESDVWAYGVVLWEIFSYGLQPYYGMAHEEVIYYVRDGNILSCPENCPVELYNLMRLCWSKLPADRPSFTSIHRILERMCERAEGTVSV
Procedure: as §1

CK1α1 = target: T4, CK1α1 (Homo sapiens, UniProt P48729)
T4 construct: purchased Reaction Biology Europe GmbH (formerly ProQinase)
Procedure: as §1

CDK1/CycA2 = target: T5, CDK1/CycA2 (Homo sapiens, UniProt P06493)
T5 construct: purchased Reaction Biology Europe GmbH (formerly ProQinase)
Procedure: as §1

JAK3 = target: T6, JAK3 (Homo sapiens, UniProt P52333)
T6 construct: purchased Reaction Biology Europe GmbH (formerly ProQinase)
T6 sequence (P52333 1-1124): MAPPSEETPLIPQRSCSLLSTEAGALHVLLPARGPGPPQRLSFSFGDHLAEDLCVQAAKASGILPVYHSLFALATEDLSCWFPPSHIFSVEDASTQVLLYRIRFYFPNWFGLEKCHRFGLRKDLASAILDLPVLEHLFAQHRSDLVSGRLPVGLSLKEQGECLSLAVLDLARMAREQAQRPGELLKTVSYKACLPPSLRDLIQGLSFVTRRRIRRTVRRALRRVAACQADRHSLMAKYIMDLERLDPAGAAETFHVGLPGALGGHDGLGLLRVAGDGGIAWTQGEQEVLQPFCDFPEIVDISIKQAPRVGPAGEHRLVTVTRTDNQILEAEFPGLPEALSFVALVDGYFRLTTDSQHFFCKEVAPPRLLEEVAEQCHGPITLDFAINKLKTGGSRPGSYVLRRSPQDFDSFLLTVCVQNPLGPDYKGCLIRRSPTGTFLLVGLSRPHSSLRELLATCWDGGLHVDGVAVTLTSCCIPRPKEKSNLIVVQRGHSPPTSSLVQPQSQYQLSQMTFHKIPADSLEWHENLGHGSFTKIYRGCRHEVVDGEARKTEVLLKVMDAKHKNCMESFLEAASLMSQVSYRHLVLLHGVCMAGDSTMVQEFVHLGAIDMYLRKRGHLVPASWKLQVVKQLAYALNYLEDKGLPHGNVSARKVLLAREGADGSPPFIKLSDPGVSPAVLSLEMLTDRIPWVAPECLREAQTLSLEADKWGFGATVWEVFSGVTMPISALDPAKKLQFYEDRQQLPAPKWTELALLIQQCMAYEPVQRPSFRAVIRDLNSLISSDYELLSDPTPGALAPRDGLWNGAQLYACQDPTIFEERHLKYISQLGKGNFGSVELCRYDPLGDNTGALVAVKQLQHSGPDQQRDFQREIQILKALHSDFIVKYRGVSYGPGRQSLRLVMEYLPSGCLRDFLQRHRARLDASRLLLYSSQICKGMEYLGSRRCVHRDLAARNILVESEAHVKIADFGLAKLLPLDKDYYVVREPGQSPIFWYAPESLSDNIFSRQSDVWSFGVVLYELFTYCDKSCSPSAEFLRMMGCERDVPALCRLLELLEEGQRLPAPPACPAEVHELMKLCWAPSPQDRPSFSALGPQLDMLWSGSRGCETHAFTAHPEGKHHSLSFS
Procedure: as §1

PAK3 = target: T7, PAK3 (Homo sapiens, UniProt O75914)
T7 construct: purchased Reaction Biology Europe GmbH (formerly ProQinase)
Procedure: as §1

T1 sequence (Q96RG2 whole entry): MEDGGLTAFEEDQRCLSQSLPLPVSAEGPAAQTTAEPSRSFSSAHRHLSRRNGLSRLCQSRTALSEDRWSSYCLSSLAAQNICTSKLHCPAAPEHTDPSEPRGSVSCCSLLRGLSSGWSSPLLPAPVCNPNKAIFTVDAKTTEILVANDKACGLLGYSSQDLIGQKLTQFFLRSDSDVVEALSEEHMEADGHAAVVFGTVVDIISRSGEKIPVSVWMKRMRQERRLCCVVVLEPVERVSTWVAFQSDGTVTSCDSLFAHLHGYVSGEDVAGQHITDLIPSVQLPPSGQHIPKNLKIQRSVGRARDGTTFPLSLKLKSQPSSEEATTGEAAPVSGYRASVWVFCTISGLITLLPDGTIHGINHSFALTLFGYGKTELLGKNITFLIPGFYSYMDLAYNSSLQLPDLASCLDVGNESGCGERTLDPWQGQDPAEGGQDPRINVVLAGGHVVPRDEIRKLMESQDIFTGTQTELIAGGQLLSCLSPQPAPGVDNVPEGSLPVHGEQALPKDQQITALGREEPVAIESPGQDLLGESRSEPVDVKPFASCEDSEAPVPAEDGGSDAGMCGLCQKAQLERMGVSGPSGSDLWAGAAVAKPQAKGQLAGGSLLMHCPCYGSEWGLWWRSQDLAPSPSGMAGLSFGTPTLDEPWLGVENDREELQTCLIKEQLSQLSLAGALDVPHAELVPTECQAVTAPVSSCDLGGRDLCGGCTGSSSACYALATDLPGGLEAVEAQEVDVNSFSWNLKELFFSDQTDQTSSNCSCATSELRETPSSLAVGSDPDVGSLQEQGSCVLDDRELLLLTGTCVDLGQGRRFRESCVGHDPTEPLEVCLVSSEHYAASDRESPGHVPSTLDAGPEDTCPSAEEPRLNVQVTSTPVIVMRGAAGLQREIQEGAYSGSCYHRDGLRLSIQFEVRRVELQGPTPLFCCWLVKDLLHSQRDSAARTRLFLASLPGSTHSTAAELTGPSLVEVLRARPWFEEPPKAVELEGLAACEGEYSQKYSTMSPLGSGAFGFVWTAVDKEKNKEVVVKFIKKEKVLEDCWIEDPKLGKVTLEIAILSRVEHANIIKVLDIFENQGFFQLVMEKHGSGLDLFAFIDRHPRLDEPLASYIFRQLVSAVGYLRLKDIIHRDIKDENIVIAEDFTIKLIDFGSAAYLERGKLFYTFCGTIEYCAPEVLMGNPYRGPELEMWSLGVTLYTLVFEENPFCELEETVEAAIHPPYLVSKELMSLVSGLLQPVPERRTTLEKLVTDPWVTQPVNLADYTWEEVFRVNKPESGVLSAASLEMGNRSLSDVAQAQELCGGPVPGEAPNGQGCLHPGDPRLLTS
T5 sequence (P06493 whole entry): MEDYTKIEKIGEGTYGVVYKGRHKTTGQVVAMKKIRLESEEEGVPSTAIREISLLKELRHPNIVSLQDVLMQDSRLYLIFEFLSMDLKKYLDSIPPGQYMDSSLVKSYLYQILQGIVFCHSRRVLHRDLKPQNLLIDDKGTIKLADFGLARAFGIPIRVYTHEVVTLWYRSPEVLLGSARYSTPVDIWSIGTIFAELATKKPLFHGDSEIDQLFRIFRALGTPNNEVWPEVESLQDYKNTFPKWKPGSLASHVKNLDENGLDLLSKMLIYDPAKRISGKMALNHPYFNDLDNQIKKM
T5 sequence (P20248 whole entry partner): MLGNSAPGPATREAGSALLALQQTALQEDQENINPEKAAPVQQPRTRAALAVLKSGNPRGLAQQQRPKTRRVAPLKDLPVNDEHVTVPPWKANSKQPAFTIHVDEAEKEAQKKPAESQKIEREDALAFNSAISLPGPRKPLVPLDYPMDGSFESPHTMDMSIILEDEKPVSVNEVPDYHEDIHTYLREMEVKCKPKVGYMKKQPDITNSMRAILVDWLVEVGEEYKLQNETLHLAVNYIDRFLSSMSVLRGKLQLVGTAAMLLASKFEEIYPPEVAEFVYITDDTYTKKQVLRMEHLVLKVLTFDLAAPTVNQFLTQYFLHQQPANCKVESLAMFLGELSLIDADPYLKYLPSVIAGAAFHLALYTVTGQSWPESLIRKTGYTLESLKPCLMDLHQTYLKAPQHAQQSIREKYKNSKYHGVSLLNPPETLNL
T7 sequence (O75914 whole entry): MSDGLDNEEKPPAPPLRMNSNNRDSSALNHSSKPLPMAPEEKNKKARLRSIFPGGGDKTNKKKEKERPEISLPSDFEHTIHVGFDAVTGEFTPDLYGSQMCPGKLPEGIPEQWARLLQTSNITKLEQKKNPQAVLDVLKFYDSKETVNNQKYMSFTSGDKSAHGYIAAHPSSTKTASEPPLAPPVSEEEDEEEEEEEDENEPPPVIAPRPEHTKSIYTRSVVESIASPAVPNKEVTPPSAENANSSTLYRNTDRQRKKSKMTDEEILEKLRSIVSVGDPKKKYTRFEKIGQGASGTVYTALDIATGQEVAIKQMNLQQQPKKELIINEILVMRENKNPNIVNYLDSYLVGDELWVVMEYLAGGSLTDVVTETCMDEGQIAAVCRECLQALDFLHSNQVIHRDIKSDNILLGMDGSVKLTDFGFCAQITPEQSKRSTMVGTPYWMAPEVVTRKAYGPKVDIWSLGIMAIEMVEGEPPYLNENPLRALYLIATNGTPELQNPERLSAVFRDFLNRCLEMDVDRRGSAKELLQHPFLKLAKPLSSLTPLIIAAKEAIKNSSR
T4 sequence (P48729 whole entry): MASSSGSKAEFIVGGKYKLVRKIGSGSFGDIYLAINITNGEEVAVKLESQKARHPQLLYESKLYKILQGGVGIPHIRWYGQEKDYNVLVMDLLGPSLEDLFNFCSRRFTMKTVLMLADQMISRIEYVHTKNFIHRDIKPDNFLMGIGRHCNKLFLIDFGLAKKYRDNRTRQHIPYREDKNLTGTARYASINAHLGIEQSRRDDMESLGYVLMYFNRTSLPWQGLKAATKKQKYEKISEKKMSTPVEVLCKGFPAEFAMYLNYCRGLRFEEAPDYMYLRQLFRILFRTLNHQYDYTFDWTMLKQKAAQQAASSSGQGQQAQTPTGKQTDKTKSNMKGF

SMILES	residual kinase activity (PASK; 0.3 µM)	residual kinase activity (PDK1; 0.3 µM)	residual kinase activity (MUSK; 0.3 µM)	residual kinase activity (CK1α1; 0.3 µM)	residual kinase activity (CDK1/CycA2; 0.3 µM)	residual kinase activity (JAK3; 0.3 µM)	residual kinase activity (PAK3; 0.3 µM)	also measured
COc1ccnc2[nH]cc(-c3cc(N)nc(N)c3)c12 [meriolin 16]	39 % of control	83 % of control	70 % of control	93 % of control	5 % of control	15 % of control	84 % of control	residual kinase activity (PASK; 0.03 µM): 82 % of control; residual kinase activity (PDK1; 0.03 µM): 98 % of control; residual kinase activity (MUSK; 0.03 µM): 88 % of control; residual kinase activity (CK1α1; 0.03 µM): 129 % of control; residual kinase activity (CDK1/CycA2; 0.03 µM): 32 % of control; residual kinase activity (JAK3; 0.03 µM): 58 % of control; residual kinase activity (PAK3; 0.03 µM): 85 % of control
c1ccc(CNc2cc(-c3c[nH]c4ncccc34)ccn2)cc1 [meriolin 36]	3 % of control	160 % of control	28 % of control	110 % of control	2 % of control	5 % of control	85 % of control	residual kinase activity (PASK; 3 µM): 0 % of control; residual kinase activity (PDK1; 3 µM): 39 % of control; residual kinase activity (MUSK; 3 µM): 5 % of control; residual kinase activity (CK1α1; 3 µM): 51 % of control; residual kinase activity (CDK1/CycA2; 3 µM): 1 % of control; residual kinase activity (JAK3; 3 µM): -1 % of control; residual kinase activity (PAK3; 3 µM): 40 % of control
